PMC6215199 (Toxins, 2018)
“Also recorded” adds a separate entry of the source.

Experiments:
Batx-I [1] = target: T1, Batx-I (Bothrops atrox, UniProt P0DJE1); assay: biochemical; type: biochemical
Batx-I [2] = target: T1, Batx-I; type: biochemical
Batx-I [3] = target: T1, Batx-I; details: cited from earlier work
BaP1 = details: EDTA chelates the catalytic Zn2+ ion; cited from earlier work

T1 sequence (P0DJE1 whole entry, looked up): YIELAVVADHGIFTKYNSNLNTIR

Compound | IC50 (Batx-I [1]) | Type of inhibition (Batx-I [2]) | ΔG^∘ Experimental (Batx-I [2]) | other results
C=C(C)[C@@H]1CC[C@]2(CO)CC[C@]3(C)[C@H](CC[C@@H]4[C@@]5(C)CC[C@H](O)C(C)(C)[C@@H]5CC[C@]43C)[C@@H]12 [Betulin] | 1470 ± 130 µM | – | – | Inhibition of metalloproteinase proteolytic activity (in words) (Batx-I [1]): negligible activity
C=C(C)[C@@H]1CC[C@]2(C(=O)O)CC[C@]3(C)[C@H](CC[C@@H]4[C@@]5(C)CC[C@H](O)C(C)(C)[C@@H]5CC[C@]43C)[C@@H]12 [Betulinic acid] | 115 ± 16 µM | competitive inhibitors | -4.5 ± 0.1 kcal/mol | –
O=C(O)CN(CCN(CC(=O)O)CC(=O)O)CC(=O)O [EDTA, Ethylenediamine-tetraacetic acid] | – | – | – | Effect on proteolytic activity of Batx-I (Batx-I [3]): eliminated; Effect on proteolytic activity of BaP1 (BaP1): eliminated
C[C@H]1[C@H](C)CC[C@]2(C(=O)O)CC[C@]3(C)C(=CC[C@@H]4[C@@]5(C)C[C@@H](O)[C@H](O)[C@@](C)(CO)[C@@H]5[C@H](O)C[C@]43C)[C@H]12 [Madecassic acid] | 540 ± 80 µM | – | – | –
CC1(C)CC[C@]2(C(=O)O)CC[C@]3(C)C(=CC[C@@H]4[C@@]5(C)CC[C@H](O)C(C)(C)[C@@H]5CC[C@]43C)[C@@H]2C1 [Oleanolic acid] | 360 ± 70 µM | competitive inhibitors | -3.7 ± 0.1 kcal/mol | –
C[C@H]1[C@H](C)CC[C@]2(C(=O)O)CC[C@]3(C)C(=CC[C@@H]4[C@@]5(C)CC[C@H](O)C(C)(C)[C@@H]5CC[C@]43C)[C@H]12 [Ursolic acid] | 220 ± 40 µM | competitive inhibitors | -3.5 ± 0.1 kcal/mol | –
CC1CCC2(C)CCC3(C)C(=CCC4C5(C)CCC(O)C(C)(C(=O)O)C5CCC43C)C2C1C (stereo not drawn) [β -Boswellic acid] | – | – | – | Inhibition of metalloproteinase proteolytic activity (in words) (Batx-I [1]): negligible activity; also recorded: does not inhibit; activity at 2000 µM (Batx-I [1]; read-out: Batx-I proteolytic activity still observed): 70%
